Experimental findings from paper PMC6359675, “Functionalization of the Chalcone Scaffold for the Discovery of Novel Lead Compounds Targeting Fungal Infections” (Molecules, 2019) are described below.

Molecules are shown by their SMILES.

The first data set relates to C. albicans ATCC 10231. Put plainly: In vitro susceptibility testing, microdilution broth (EUCAST), C. albicans control strain. Format: cell-based, Candida albicans. As to conditions: Candida albicans, ATCC10231; at 100 μM; C. albicans ATCC 10231; 24 h. The protocol: The in vitro antifungal activity of the chalcones was evaluated by a microdilution broth method in accordance with the guidelines provided by the EUCAST Edef 7.3 [22]. Briefly, all strains were cultured on Sabauraud dextrose, then inocula, prepared at 0.5 McFarland, were diluted 1:20 in RPMI-1640 medium (Gibco®, ThermoFisher Scientific Inc., Waltham, MA, USA), containing glucose 2%, 0.3% levo-glutamine buffered to pH 7.0 with 0.165 M 3-(N-morpholino)propanesulfonic acid (MOPS) to yield 1-5 × 10^5 cells/mL. A total of 100 µL of the yeast suspension was inoculated in a 96-well microplate and incubated with 100 µL of serially 2-fold dilution of the compound in the range 200–6.25 µM. The following controls were included: yeast suspensions incubated in RPMI-1640 culture medium (positive growth control), or supplemented with dilutions of DMSO, or fluconazole (Sigma-Aldrich, St. Louis, MO, USA) as a commercial drug. To check the background turbidity of reagents and the sterility of the procedure, dilutions of each compound were incubated in RPMI-1640 culture medium, without yeast inoculum. The inoculated plate was incubated at 37 °C for 24 h, and subsequently the optical density at 630 nm was measured by the Multiskan Ascent microplate reader (Thermo Fisher Scientific Inc.). The effectiveness of the compounds was expressed as percent inhibition relative to the positive growth control when the inhibition […] the 50% at 100 µM. The IC50 value was determined by interpolation of the dose–response curves generated by plotting the percentages of growth inhibition, relative to the drug-free control (set to 100% of growth), as a function of the tested concentrations (on a logarithm scale). Statistical analysis was carried out by the nonlinear regression method using GraphPad Prism version 5.0 for Windows (GraphPad Software, San Diego, CA, USA). All assays were performed in triplicate and at least two independent experiments were carried out.
Background: Dilution methods test growth across graded concentrations, often in twofold steps.
The term inhibition denotes the drop in the measured response relative to a control, in per cent. `CC(C)=CCOc1ccc(C(=O)/C=C/c2cccnc2)cc1` [Compound 32, (E)-1-(4-((3-methylbut-2-en-1-yl)oxy)phenyl)-3-(pyridin-3-yl)prop-2-en-1-one] displayed an inhibition at 100 µM below 1%.

In turn, `CC(C)=CCOc1ccc(C(=O)/C=C/c2ccncc2)cc1` [Compound 33, (E)-1-(4-((3-methylbut-2-en-1-yl)oxy)phenyl)-3-(pyridin-4-yl)prop-2-en-1-one] showed an inhibition at 100 µM below 1%.

For `CC(C)=CCOc1ccc(C(=O)/C=C/c2ccc([N+](=O)[O-])cc2)cc1` [Compound 34, (E)-1-(4-((3-methylbut-2-en-1-yl)oxy)phenyl)-3-(4-nitrophenyl)prop-2-en-1-one], the inhibition at 100 µM came out at 37.9 ± 5.2%.

`C#CCOc1ccc(C(=O)/C=C/c2cccnc2)cc1` [Compound 36, (E)-1-(4-(prop-2-yn-1-yloxy)phenyl)-3-(pyridin-3-yl)prop-2-en-1-one] registered an inhibition at 100 µM below 1%.

Take `C#CCOc1ccc(C(=O)/C=C/c2ccncc2)cc1` [Compound 37, (E)-1-(4-(prop-2-yn-1-yloxy)phenyl)-3-(pyridin-4-yl)prop-2-en-1-one]: the inhibition at 100 µM is below 1%.

`C#CCOc1ccc(C(=O)/C=C/c2ccc([N+](=O)[O-])cc2)cc1` [Compound 38, (E)-3-(4-nitrophenyl)-1-(4-(prop-2-yn-1-yloxy)phenyl)prop-2-en-1-one] registered an inhibition at 100 µM of 46.3 ± 3.7%.

Staying with this data set, now noted: screen at 100 μM, C. albicans ATCC 10231.
On to `CC(C)=CCOc1ccc(C(=O)/C=C/c2cccnc2)cc1` [Compound 32, (E)-1-(4-((3-methylbut-2-en-1-yl)oxy)phenyl)-3-(pyridin-3-yl)prop-2-en-1-one], for which the “antifungal activity against C. albicans growth, in words” value (from here on “antifungal activity”) was “devoid of any effect”.

As to `CC(C)=CCOc1ccc(C(=O)/C=C/c2ccncc2)cc1` [Compound 33, (E)-1-(4-((3-methylbut-2-en-1-yl)oxy)phenyl)-3-(pyridin-4-yl)prop-2-en-1-one], the “antifungal activity” value was “devoid of any effect”.

Take `CC(C)=CCOc1ccc(C(=O)/C=C/c2ccc([N+](=O)[O-])cc2)cc1` [Compound 34, (E)-1-(4-((3-methylbut-2-en-1-yl)oxy)phenyl)-3-(4-nitrophenyl)prop-2-en-1-one]: the “antifungal activity” value was “inactive”.

Take `C#CCOc1ccc(C(=O)/C=C/c2cccnc2)cc1` [Compound 36, (E)-1-(4-(prop-2-yn-1-yloxy)phenyl)-3-(pyridin-3-yl)prop-2-en-1-one]: the “antifungal activity” value was “devoid of any effect”.

For the compound `C#CCOc1ccc(C(=O)/C=C/c2ccncc2)cc1` [Compound 37, (E)-1-(4-(prop-2-yn-1-yloxy)phenyl)-3-(pyridin-4-yl)prop-2-en-1-one], the “antifungal activity” value was “devoid of any effect”.

As to `C#CCOc1ccc(C(=O)/C=C/c2ccc([N+](=O)[O-])cc2)cc1` [Compound 38, (E)-3-(4-nitrophenyl)-1-(4-(prop-2-yn-1-yloxy)phenyl)prop-2-en-1-one], the “antifungal activity” value was “inactive”.

Tested on in a further data set: not given
Assay: not given
Settings: not given
A word on the melting point: it is the temperature, or range, at which the solid turns liquid. Consider `CC(C)=CCOc1ccc(C(=O)/C=C/c2cccnc2)cc1` [Compound 32, (E)-1-(4-((3-methylbut-2-en-1-yl)oxy)phenyl)-3-(pyridin-3-yl)prop-2-en-1-one], for which the melting point fell in the range of 87 to 88 °C.

As to `CC(C)=CCOc1ccc(C(=O)/C=C/c2ccncc2)cc1` [Compound 33, (E)-1-(4-((3-methylbut-2-en-1-yl)oxy)phenyl)-3-(pyridin-4-yl)prop-2-en-1-one], the melting point lay within 91 to 93 °C.

As for `CC(C)=CCOc1ccc(C(=O)/C=C/c2ccc([N+](=O)[O-])cc2)cc1` [Compound 34, (E)-1-(4-((3-methylbut-2-en-1-yl)oxy)phenyl)-3-(4-nitrophenyl)prop-2-en-1-one], the melting point lay in the range of 100 to 102 °C.

For `C#CCOc1ccc(C(=O)/C=C/c2cccnc2)cc1` [Compound 36, (E)-1-(4-(prop-2-yn-1-yloxy)phenyl)-3-(pyridin-3-yl)prop-2-en-1-one], the melting point lay within 96 to 98 °C.

`C#CCOc1ccc(C(=O)/C=C/c2ccncc2)cc1` [Compound 37, (E)-1-(4-(prop-2-yn-1-yloxy)phenyl)-3-(pyridin-4-yl)prop-2-en-1-one] registered a melting point of 99 to 101 °C.

`C#CCOc1ccc(C(=O)/C=C/c2ccc([N+](=O)[O-])cc2)cc1` [Compound 38, (E)-3-(4-nitrophenyl)-1-(4-(prop-2-yn-1-yloxy)phenyl)prop-2-en-1-one]: the melting point was 103 to 105 °C.
